Test results: patent US20250042886A1, “BIS(HETERO)ARYL THIOETHER OXADIAZINES AS FUNGICIDAL COMPOUNDS” (Bayer Aktiengesellschaft, priority 2021, published 2025)

What was measured:
[1] = Measurement of Log P values by HPLC on reversed phase columns (EEC directive 79/831 Annex V.A8); format: physicochemical; conditions: Table 1, compounds of formula (I); method [a]: LC-UV, acidic range, 0.1% formic acid in water and acetonitrile
Alternaria brassicae = assay: In vivo preventive test on Alternaria brassicae (leaf spot on radish or cabbage); conditions: 500 ppm of active ingredient, sprayed on young radish or cabbage plants 24 h before inoculation, evaluated 3 to 4 days after inoculation, read-out: efficacy
How it was run: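 Young radish or cabbage plants sprayed preventively with compound formulated in DMSO/acetone/Tween 80 and diluted in water; vehicle-treated plants as controls. Leaves inoculated by spraying an aqueous Alternaria brassicae spore suspension 24 h after treatment.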

Botrytis cinerea [2] = assay: In vivo preventive test on Botrytis cinerea (grey mould); conditions: 500 ppm of active ingredient, sprayed on young gherkin or cabbage plants 24 h before inoculation, evaluated 4 to 5 days after inoculation, read-out: efficacy
How it was run: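 Young plants of gherkin or cabbage were sprayed with water-diluted compound formulated in DMSO/acetone/Tween 80, with solvent-only controls. Inoculation followed 24 h later by spraying an aqueous spore suspension of Botrytis cinerea onto leaves.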

[3] = test system: Colletotrichum lindemuthianum; assay: In vivo preventive test on Colletotrichum lindemuthianum (leaf spot on bean); conditions: 168 h, 500 ppm of active ingredient, sprayed on young bean plants 24 h before inoculation, evaluated 7 days after inoculation, read-out: efficacy
Method: B-4. […] The active ingredients were made soluble and homogenized in a mixture of Dimethyl sulfoxide/Acetone//Tween® 80 and then diluted in water to the desired concentration. The young plants of bean were treated by spraying the active ingredient prepared as described above. Control plants were treated only with an aqueous solution of Acetone/Dimethyl sulfoxide/Tween® 80. After 24 hours, the plants were contaminated by spraying the leaves with an aqueous suspension of Colletotrichum lindemuthianum spores.

Pyricularia oryzae = assay: microbe, parasite or virus in culture; format: cell-based; conditions: 120 h; for inhibition at 20 ppm: read-out: efficacy (inhibition of fungal growth), 20 ppm of active ingredient, liquid culture, 5 days incubation
[4] = test system: Colletotrichum lindemuthianum; assay: Colletotrichum lindemuthianum in vitro cell test; format: cell-based; conditions: 144 h, liquid culture, 6 days incubation, read-out: efficacy (inhibition of fungal growth); for inhibition at 20 ppm: 20 ppm of active ingredient
How it was run: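 Inhibition of spore germination and mycelium growth, as absorbance relative to untreated wells, was read on day 6. Compounds from DMSO stocks were added to a spore suspension in glucose/peptone/yeast extract broth.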

Pyrenophora teres = Pyrenophora teres in vitro cell test; format: cell-based; conditions: 144 h, liquid culture, 6 days incubation, read-out: efficacy (inhibition of fungal growth); for inhibition at 20 ppm: 20 ppm of active ingredient
How it was run: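 Compounds in DMSO were added to P. teres spore suspensions in glucose/peptone/yeast-extract liquid medium, testing inhibition of spore germination and mycelium growth. After 6 days, mycelium growth was read by absorbance. Inhibition was calculated relative to fungicide-free control wells.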

Botrytis cinerea [5] = assay: Botrytis cinerea in vitro cell test; format: cell-based; conditions: 144 h, liquid culture, 6 days incubation, read-out: efficacy (inhibition of fungal growth); for inhibition at 20 ppm: 20 ppm of active ingredient
How it was run: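 Liquid-culture germination/growth test: spore suspension in synthetic medium (salts, urea, KNO3, saccharose, trace elements, thiamine, biotin) with compound dissolved in DMSO. Absorbance of mycelial growth measured at day 6, compared with untreated wells to give inhibition.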

Septoria tritici = Septoria tritici in vitro cell test; format: cell-based; conditions: Zymoseptoria tritici, 168 h, liquid culture, 7 days incubation, read-out: efficacy (inhibition of fungal growth); for inhibition at 20 ppm: 20 ppm of active ingredient
Method: B-11. Septoria tritici In Vitro Cell Test • Solvent: DMSO • Culture medium: 1 g KH2PO4 (VWR), 1 g K2HPO4 (VWR), 0.5 g Urea (VWR), 3 g KNO3 (Prolabo), 10 g saccharose (VWR), 0.5 g MgSO4, 7H2O (Sigma), 0.07 g CaCl2, 2H2O (Prolabo), 0.2 mg MnSO4, H2O (Sigma), 0.6 mg CuSO4, 5H2O (Sigma), 7.9 mg ZnSO4, 7H2O (Sigma), 0.1 mg H3BO3 (Merck), 0.14 mg NaMoO4, 2H2O (Sigma), 2 mg thiamine (Sigma), 0.1 mg biotine (VWR), 4 mg FeSO4, 7H2O (Sigma), QSP 1 liter • Inoculum: spore suspension Fungicides were solubilized in DMSO and the solution used to prepare the required range of concentrations. […] A spore suspension of S. tritici was prepared and diluted to the desired spore density. Fungicides were evaluated for their ability to inhibit spore germination and mycelium growth in liquid culture assay. The compounds were added in the desired concentration to the culture medium with spores. […] Inhibition of fungal growth was determined by comparing the absorbance values in wells containing the fungicides with the absorbance in control wells without fungicides.

SMILES | chromatographic logP [1] | pest or weed control at 500 ppm (Alternaria brassicae) [%] | pest or weed control at 500 ppm (Botrytis cinerea [2]) [%] | pest or weed control at 500 ppm [3] [%] | inhibition at 20 ppm (Pyricularia oryzae) [%] | inhibition at 20 ppm [4] [%] | inhibition at 20 ppm (Pyrenophora teres) [%] | inhibition at 20 ppm (Botrytis cinerea [5]) [%] | inhibition at 20 ppm (Septoria tritici) [%] | inhibition at 50 µM (Pyricularia oryzae; read-out: efficacy (inhibition of fungal growth), 50 μMol/l of active ingredient, liquid culture, 5 days incubation) [%] | inhibition at 50 µM ([4]; 50 μMol/l of active ingredient) [%] | inhibition at 50 µM (Pyrenophora teres; 50 μMol/l of active ingredient) [%] | inhibition at 50 µM (Botrytis cinerea [5]; 50 μMol/l of active ingredient) [%] | inhibition at 50 µM (Septoria tritici; 50 μMol/l of active ingredient) [%]
FC(F)(F)c1cccc(Sc2cnc(Cl)cc2C2=NOC[C@@H](Cc3ccc(Cl)cc3Cl)N2)c1 (racemic) [Compound I-022] | 4.97 | 80 to 89 | 90 to 100 | 90 to 100 | 80 to 89 | 90 to 100 | 90 to 100 | 90 to 100 | 80 to 89 | – | – | – | – | –
Cc1cccc(Sc2cnc3ccccc3c2C2=NOC[C@H](Cc3ccc(C)cc3C)N2)c1 (racemic) [Compound I-023] | 4.37 | 90 to 100 | 90 to 100 | 70 to 79 | 90 to 100 | 90 to 100 | 90 to 100 | 90 to 100 | 90 to 100 | – | – | – | – | –
Cc1ccc(C[C@@H]2CON=C(c3c(Sc4cccc(C(F)(F)F)c4)nnc4ccccc34)N2)c(C)c1 (racemic) [Compound I-029] | 4.66 | 80 to 89 | 90 to 100 | 70 to 79 | 90 to 100 | 90 to 100 | 90 to 100 | 90 to 100 | 90 to 100 | – | – | – | – | –
Cc1ccc(C[C@H]2CON=C(c3c(Sc4cccc(C(F)(F)F)c4)cnc4ccccc34)N2)c(C)c1 (racemic) [Compound I-030] | 4.57 | 70 to 79 | 90 to 100 | 90 to 100 | 90 to 100 | 90 to 100 | 90 to 100 | 90 to 100 | 70 to 79 | – | – | – | – | –
Cc1ccc(C[C@@H]2CON=C(c3nc(C)ncc3Sc3cccc(Cl)c3)N2)c(C)c1 (racemic) [Compound I-031] | 5.16 | 90 to 100 | 90 to 100 | 90 to 100 | – | 90 to 100 | 90 to 100 | 90 to 100 | 80 to 89 | – | – | – | – | –
Cc1cccc(Sc2cnc(C)nc2C2=NOC[C@@H](Cc3ccc(C)cc3C)N2)c1 (racemic) [Compound I-032] | 5.09 | 90 to 100 | 90 to 100 | 90 to 100 | 70 to 79 | 90 to 100 | 90 to 100 | 90 to 100 | 90 to 100 | – | – | – | – | –
Cc1ccc(C[C@@H]2CON=C(c3nc(C)ncc3Sc3cccc(Cl)c3)N2)c(Cl)c1 (racemic) [Compound I-033] | 5.24 | 80 to 89 | 90 to 100 | 90 to 100 | – | 90 to 100 | 90 to 100 | 90 to 100 | 90 to 100 | – | – | – | – | –
Cc1cc([C@@H]2CON=C(c3c(Sc4cccc(Cl)c4)nnc(C)c3C)N2)c(C)s1 (racemic) [Compound I-100] | 3.49 | 90 to 100 | 90 to 100 | 90 to 100 | – | – | – | – | – | 90 to 100 | 90 to 100 | 90 to 100 | 90 to 100 | 90 to 100
